Measurements as given in ChEMBL document CHEMBL4765261, “Design, synthesis, and biological evaluation of heterotetracyclic quinolinone derivatives as anticancer agents targeting topoisomerases” (Eur J Med Chem, 2020).
Each block holds one compound with its values, some of them ahead of it. Calls of active or inactive are those of the source. The calls are words filed in the database; no cut-off is given here.

Columns and labels:
[1] = Cytotoxicity against human MDA-MB-231 cells assessed as reduction in cell viability at 10 uM after 72 hrs by MTT assay relative to control; type: cell-based; conditions: read-out: INH
MDA-MB-231 [2] = assay: Cell cycle arrest in human MDA-MB-231 cells assessed as accumulation at sub-G1 phase at 20 uM after 24 hrs by propidium iodide staining based flow cytometric analysis (reference value: 0.72%); type: functional
MDA-MB-468 = assay: Anticancer activity against human MDA-MB-468 cells assessed as inhibition of cell proliferation measured after 72 hrs by MTT assay; type: functional, cell-based; conditions: MDA-MB-468, 72 h
[3] = biological target: T1, DNA topoisomerase 1 (Homo sapiens) (UniProt P11387); assay: Inhibition of human recombinant topoisomerase 1 expressed in baculovirus-infected insect cells assessed as inhibition of DNA relaxation at 10 uM incubated for 30 mins by ethidium bromide staining based agarose gel electrophoresis method
T1 sequence (whole entry): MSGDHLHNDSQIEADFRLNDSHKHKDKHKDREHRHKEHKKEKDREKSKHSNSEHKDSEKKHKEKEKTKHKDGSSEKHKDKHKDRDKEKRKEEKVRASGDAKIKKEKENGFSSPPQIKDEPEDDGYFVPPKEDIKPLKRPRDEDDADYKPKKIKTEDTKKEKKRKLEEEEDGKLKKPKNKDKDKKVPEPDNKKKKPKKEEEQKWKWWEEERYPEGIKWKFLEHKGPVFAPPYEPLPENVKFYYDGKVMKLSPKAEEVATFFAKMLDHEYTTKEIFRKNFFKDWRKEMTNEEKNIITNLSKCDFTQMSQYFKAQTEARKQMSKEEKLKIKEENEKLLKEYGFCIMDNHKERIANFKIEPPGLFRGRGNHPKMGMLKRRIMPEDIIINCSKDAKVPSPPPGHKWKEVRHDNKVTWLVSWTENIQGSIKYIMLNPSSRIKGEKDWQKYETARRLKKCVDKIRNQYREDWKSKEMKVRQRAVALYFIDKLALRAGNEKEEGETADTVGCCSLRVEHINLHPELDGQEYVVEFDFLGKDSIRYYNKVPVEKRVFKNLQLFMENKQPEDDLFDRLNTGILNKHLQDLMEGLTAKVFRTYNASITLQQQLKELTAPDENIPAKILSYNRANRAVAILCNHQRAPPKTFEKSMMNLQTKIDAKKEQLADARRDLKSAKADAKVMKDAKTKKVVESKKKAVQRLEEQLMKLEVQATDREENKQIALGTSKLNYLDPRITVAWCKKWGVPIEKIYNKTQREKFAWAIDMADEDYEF

MDA-MB-231 [4] = assay: Cell cycle arrest in human MDA-MB-231 cells assessed as accumulation at sub-G1 phase at 10 uM after 24 hrs by propidium iodide staining-based flow cytometric analysis (reference value: 0.72%); type: functional
MCF7 = assay: Anticancer activity against human MCF7 cells assessed as inhibition of cell proliferation measured after 72 hrs by MTT assay; type: functional, cell-based; conditions: MCF7, 72 h
HCT-116 = assay: Anticancer activity against human HCT-116 cells assessed as inhibition of cell proliferation measured after 72 hrs by MTT assay; type: functional, cell-based; conditions: HCT-116, 72 h
NCI-H1299 = assay: Anticancer activity against human H1299 cells assessed as inhibition of cell proliferation measured after 72 hrs by MTT assay; type: functional, cell-based; conditions: NCI-H1299, 72 h
[5] = biological target: T1, DNA topoisomerase 1 (Homo sapiens); assay: Inhibition of human recombinant topoisomerase 1 expressed in baculovirus-infected insect cells assessed as inhibition of DNA relaxation at 1 uM incubated for 30 mins by ethidium bromide staining based agarose gel electrophoresis method
MDA-MB-231 [6] = assay: Anticancer activity against human MDA-MB-231 cells assessed as inhibition of cell proliferation measured after 72 hrs by MTT assay; type: functional, cell-based; conditions: MDA-MB-231, 72 h
[7] = biological target: DNA topoisomerase 2-alpha (Homo sapiens) (UniProt P11388); assay: Inhibition of human recombinant topoisomerase 2alpha expressed in baculovirus-infected insect cells assessed as inhibition of DNA relaxation at 3 uM incubated for 45 mins by ethidium bromide staining based agarose gel electrophoresis method
[8] = biological target: DNA topoisomerase 2-alpha (Homo sapiens) (UniProt P11388); assay: Inhibition of human recombinant topoisomerase 2alpha expressed in baculovirus-infected insect cells assessed as inhibition of DNA relaxation at 1 uM incubated for 45 mins by ethidium bromide staining based agarose gel electrophoresis method
[9] = biological target: T1, DNA topoisomerase 1 (Homo sapiens); assay: Inhibition of human recombinant topoisomerase 1 expressed in baculovirus-infected insect cells assessed as inhibition of DNA relaxation at 3 uM incubated for 30 mins by ethidium bromide staining based agarose gel electrophoresis method
[10] = biological target: T1, DNA topoisomerase 1 (Homo sapiens); assay: Poison activity at human recombinant topoisomerase I assessed as accumulation of supercoiled DNA at 10 uM measured after 30 mins by ethidium bromide staining based agarose gel electrophoresis
[11] = biological target: T1, DNA topoisomerase 1 (Homo sapiens); assay: Poison activity at human recombinant topoisomerase I assessed as accumulation of supercoiled DNA by measuring restricted DNA mobility at 30 uM measured after 30 mins by ethidium bromide staining based agarose gel electrophoresis
MDA-MB-231 [12] = assay: Cell cycle arrest in human MDA-MB-231 assessed as increase accumulation at G2/M phase incubated for 12 hrs by propidium iodide staining based flow cytometric analysis relative to control; type: functional
MCF-10A [13] = assay: Induction of cell cycle arrest in human MCF-10A cells assessed as increase in accumulation of cells at sub-G1 phase at 2.5 uM incubated for 24 hrs by propidium iodide based flow cytometry analysis
MDA-MB-231 [14] = assay: Induction of apoptosis in human MDA-MB-231 cells assessed as increase in cleaved caspase-9 level incubated for 24 hrs by Western blot analysis; type: functional, cell-based
MDA-MB-231 [15] = assay: Cell cycle arrest in human MDA-MB-231 cells assessed as accumulation at sub-G1 phase at 4 uM after 24 hrs by propidium iodide staining based flow cytometric analysis (reference value: 0.72%); type: functional
[16] = biological target: DNA topoisomerase 2-alpha (Homo sapiens) (UniProt P11388); assay: Poison activity at human recombinant topoisomerase II alpha in human MDA-MB-231 cells assessed as increase in chromatin incubated for 30 mins by Western blot analysis; type: cell-based
MDA-MB-231 [17] = assay: Induction of apoptosis in human MDA-MB-231 cells assessed as increase in cleaved caspase-8 level incubated for 24 hrs by Western blot analysis; type: functional, cell-based
MDA-MB-231 [18] = assay: Cell cycle arrest in human MDA-MB-231 cells assessed as accumulation at sub-G1 phase at 2 uM after 24 hrs by propidium iodide staining-based flow cytometric analysis (reference value: 0.72%); type: functional
[19] = biological target: T1, DNA topoisomerase 1 (Homo sapiens); assay: Poison activity at human recombinant topoisomerase I in human MDA-MB-231 cells assessed as increase in chromatin incubated for 30 mins by Western blot analysis; type: cell-based
MCF-10A [20] = assay: Antiproliferative activity against human MCF-10A cells at 2.5 uM after 72 hrs by MTT assay relative to control; type: cell-based
MDA-MB-231 [21] = assay: Antiproliferative activity against human […] at 2.5 uM after 72 hrs by MTT assay relative to control; type: functional, cell-based
MDA-MB-231 [22] = assay: Induction of cell cycle arrest in human […] assessed as increase in accumulation of cells at sub-G1 phase at 2.5 uM incubated for 24 hrs by propidium iodide based flow cytometry analysis; type: functional
MDA-MB-231 [23] = assay: Induction of DNA damage in human MDA-MB-231 cells assessed as phosphorylation of Ser 139 of histone H2AX measured after 24 hrs by western blotting analysis; type: functional, cell-based

Sequence of DNA topoisomerase 2-alpha (Homo sapiens) (P11388 whole entry): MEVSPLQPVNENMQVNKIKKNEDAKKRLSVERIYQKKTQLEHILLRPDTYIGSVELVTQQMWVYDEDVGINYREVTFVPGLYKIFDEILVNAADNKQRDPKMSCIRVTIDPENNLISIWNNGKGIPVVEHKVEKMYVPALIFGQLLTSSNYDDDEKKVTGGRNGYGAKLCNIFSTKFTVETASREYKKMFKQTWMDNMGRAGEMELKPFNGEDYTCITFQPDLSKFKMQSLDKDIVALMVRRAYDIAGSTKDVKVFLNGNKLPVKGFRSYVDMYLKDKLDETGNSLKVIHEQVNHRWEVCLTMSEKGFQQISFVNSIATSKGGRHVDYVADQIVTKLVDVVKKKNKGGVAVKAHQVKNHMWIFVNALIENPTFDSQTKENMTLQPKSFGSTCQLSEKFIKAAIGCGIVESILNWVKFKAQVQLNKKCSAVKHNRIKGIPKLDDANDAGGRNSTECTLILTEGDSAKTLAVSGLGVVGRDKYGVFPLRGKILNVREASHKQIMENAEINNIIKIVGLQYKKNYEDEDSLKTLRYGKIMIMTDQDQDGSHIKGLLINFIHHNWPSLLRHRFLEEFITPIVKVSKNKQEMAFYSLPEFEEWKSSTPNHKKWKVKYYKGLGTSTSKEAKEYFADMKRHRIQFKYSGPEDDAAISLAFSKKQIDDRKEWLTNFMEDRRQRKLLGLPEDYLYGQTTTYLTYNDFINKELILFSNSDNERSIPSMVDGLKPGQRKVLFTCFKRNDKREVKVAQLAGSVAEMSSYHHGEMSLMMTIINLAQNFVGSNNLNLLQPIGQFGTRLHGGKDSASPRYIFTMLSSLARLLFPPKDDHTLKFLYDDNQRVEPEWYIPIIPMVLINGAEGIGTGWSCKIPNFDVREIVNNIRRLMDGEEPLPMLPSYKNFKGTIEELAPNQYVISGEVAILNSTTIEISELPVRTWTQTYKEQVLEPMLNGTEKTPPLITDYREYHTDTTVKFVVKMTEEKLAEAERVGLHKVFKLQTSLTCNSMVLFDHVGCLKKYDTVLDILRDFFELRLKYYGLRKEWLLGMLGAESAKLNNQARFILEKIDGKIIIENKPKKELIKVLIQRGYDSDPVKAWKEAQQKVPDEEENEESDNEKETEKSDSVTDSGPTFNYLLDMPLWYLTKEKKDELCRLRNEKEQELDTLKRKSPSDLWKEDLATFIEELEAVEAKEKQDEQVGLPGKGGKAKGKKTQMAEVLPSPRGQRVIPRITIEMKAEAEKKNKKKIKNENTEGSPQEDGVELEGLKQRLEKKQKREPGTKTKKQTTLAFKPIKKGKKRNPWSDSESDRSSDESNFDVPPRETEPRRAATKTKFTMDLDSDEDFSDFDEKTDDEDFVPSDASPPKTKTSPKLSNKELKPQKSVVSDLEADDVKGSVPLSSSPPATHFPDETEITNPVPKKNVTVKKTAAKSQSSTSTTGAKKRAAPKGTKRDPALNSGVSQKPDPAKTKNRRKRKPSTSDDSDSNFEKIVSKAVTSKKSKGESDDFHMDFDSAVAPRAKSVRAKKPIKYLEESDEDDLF

Compound: CCNc1nc2ccccc2c2c(=O)c3cccc(OC)c3sc12
cytotoxicity at 72 h, 10 µM [1]: 21%

Compound: O=c1c2cccc(F)c2sc2c(NCc3ccccc3)nc3ccccc3c12
cytotoxicity at 72 h, 10 µM [1]: < 20%

Compound: CCNc1nc2ccccc2c2c(=O)c3cc(C)ccc3sc12
cytotoxicity at 72 h, 10 µM [1]: 21%

IC50 (MDA-MB-468): 0.27 µM
inhibition [3]: 100%
IC50 (MCF7): 4.49 µM
IC50 (HCT-116): 2.51 µM
IC50 (NCI-H1299): 3.69 µM
inhibition [5]: Active
IC50 (MDA-MB-231 [6]): 2.19 µM
inhibition [7]: Active
inhibition [8]: 100%
inhibition of DNA relaxation (active/inactive) [9]: Active
Compound: NCCCNc1nc2ccccc2c2c(=O)c3cccc(Cl)c3sc12
Activity (MDA-MB-231 [2]): 35.7%
Activity (MDA-MB-231 [4]): 9.8%
cytotoxicity at 72 h, 10 µM [1]: > 95%

IC50 (MDA-MB-468): 1.09 µM
IC50 (MCF7): 4.36 µM
IC50 (HCT-116): 3.54 µM
IC50 (NCI-H1299): 4.73 µM
inhibition [5]: Active
IC50 (MDA-MB-231 [6]): 3.39 µM
inhibition [7]: Active
inhibition of DNA relaxation (active/inactive) [9]: Active
Compound: NCCCNc1nc2ccccc2c2c(=O)c3cc(Cl)ccc3sc12
cytotoxicity at 72 h, 10 µM [1]: > 95%

Compound: CCCNc1nc2ccccc2c2c(=O)c3ccc(Cl)cc3sc12
cytotoxicity at 72 h, 10 µM [1]: < 20%

Compound: CCCNc1nc2ccccc2c2c(=O)c3cc(Cl)ccc3sc12
cytotoxicity at 72 h, 10 µM [1]: 21%

Compound: O=c1c2cc(F)ccc2sc2c(NCc3ccccc3)nc3ccccc3c12
cytotoxicity at 72 h, 10 µM [1]: 21%

Compound: CCNc1nc2ccccc2c2c(=O)c3cc(F)cc(Cl)c3sc12
cytotoxicity at 72 h, 10 µM [1]: 21%

Compound: Cc1ccc2sc3c(NCc4ccccc4)nc4ccccc4c3c(=O)c2c1
cytotoxicity at 72 h, 10 µM [1]: 21%

Activity [3]: Active
Compound: CCCNc1nc2ccccc2c2c(=O)c3cc(OC)ccc3sc12
cytotoxicity at 72 h, 10 µM [1]: < 20%

Compound: CCCNc1nc2ccccc2c2c(=O)c3c(Cl)cccc3sc12
cytotoxicity at 72 h, 10 µM [1]: < 20%

IC50 (MDA-MB-468): 3.04 µM
inhibition [3]: 100%
IC50 (MCF7): > 5 µM
IC50 (HCT-116): > 5 µM
IC50 (NCI-H1299): > 5 µM
inhibition [5]: Active
IC50 (MDA-MB-231 [6]): 4.5 µM
inhibition [7]: Active
inhibition of DNA relaxation (active/inactive) [9]: Active
Compound: COc1ccc2sc3c(NCCCN)nc4ccccc4c3c(=O)c2c1
cytotoxicity at 72 h, 10 µM [1]: > 95%

IC50 (MDA-MB-468): 2.89 µM
inhibition [3]: 100%
IC50 (MCF7): > 5 µM
IC50 (HCT-116): 4.22 µM
IC50 (NCI-H1299): > 5 µM
inhibition [5]: Active
IC50 (MDA-MB-231 [6]): 3.69 µM
inhibition [7]: Active
inhibition of DNA relaxation (active/inactive) [9]: Active
Compound: Cc1ccc2sc3c(NCCCN)nc4ccccc4c3c(=O)c2c1
cytotoxicity at 72 h, 10 µM [1]: > 95%

Compound: CCCNc1nc2ccccc2c2c(=O)c3cccc(Cl)c3sc12
cytotoxicity at 72 h, 10 µM [1]: < 20%

Compound: CCCNc1nc2ccccc2c2c(=O)c3cc(F)ccc3sc12
cytotoxicity at 72 h, 10 µM [1]: 21%

Compound: O=C(Nc1nc2ccccc2c2c(=O)c3cc(Cl)ccc3sc12)c1ccccn1
cytotoxicity at 72 h, 10 µM [1]: < 20%

Compound: CCNc1nc2ccccc2c2c(=O)c3cccc(F)c3sc12
cytotoxicity at 72 h, 10 µM [1]: < 20%

Compound: COc1cccc2c(=O)c3c(sc12)c(NCc1ccccc1)nc1ccccc13
cytotoxicity at 72 h, 10 µM [1]: 21%

Compound: COc1ccc(CNc2nc3ccccc3c3c(=O)c4cc(Cl)ccc4sc23)cc1
cytotoxicity at 72 h, 10 µM [1]: 21%

IC50 (MDA-MB-468): 1.24 µM
inhibition [3]: 100%
IC50 (MCF7): 3.98 µM
IC50 (HCT-116): 3.05 µM
IC50 (NCI-H1299): 3.02 µM
inhibition [5]: Active
IC50 (MDA-MB-231 [6]): 2.9 µM
inhibition [7]: Active
inhibition of DNA relaxation (active/inactive) [9]: Active
Compound: NCCCNc1nc2ccccc2c2c(=O)c3cc(F)ccc3sc12
cytotoxicity at 72 h, 10 µM [1]: > 95%

Compound: O=c1c2cc(F)ccc2sc2c(NCc3cccnc3)nc3ccccc3c12
cytotoxicity at 72 h, 10 µM [1]: 21%

IC50 (MDA-MB-468): 0.22 µM
inhibition [3]: 100%
Activity (MCF-10A [13]): 1.6%
IC50 (MCF7): 0.8 µM
IC50 (HCT-116): 0.53 µM
IC50 (NCI-H1299): 0.53 µM
inhibition [5]: Active
IC50 (MDA-MB-231 [6]): 1.14 µM
inhibition [7]: Active
inhibition [8]: 100%
inhibition of DNA relaxation (active/inactive) [9]: Active
Compound: NCCNc1nc2ccccc2c2c(=O)c3cc(F)cc(Cl)c3sc12
Activity [10]: Active
Activity [11]: Active
Activity (MDA-MB-231 [12]): Active
Activity (MDA-MB-231 [14]): Active
Activity (MDA-MB-231 [15]): 39.4%
Activity [16]: Active
Activity (MDA-MB-231 [17]): Active
Activity (MDA-MB-231 [18]): 3.6%
Activity [19]: Active
cytotoxicity at 72 h, 10 µM [1]: > 95%
Activity (MCF-10A [20]): Non-Toxic
Activity (MDA-MB-231 [21]): Active
Activity (MDA-MB-231 [22]): 70.2%
Activity (MDA-MB-231 [23]): Active
